Measurements: patent US9095594B2, “Pharmaceutical compositions comprising beta-lactam antibiotic, sulbactam and beta-lactamase inhibitor” (Wockhardt Ltd., priority 2011, dated 2015)
≈ marks a conversion by molar mass, not a printed value. Like-named read-outs stand apart in the source and are kept apart here.

What was measured:
[1] = tested on: A. baumanii S-8 (ESBL strain); assay: Agar dilution MIC (CLSI); assay type: cell-based; details: A. baumanii S-8; for MIC: Acinetobacter baumannii
Description: (§1) In a typical study, overnight grown bacterial cultures were diluted appropriately and inoculated on the agar media containing doubling dilutions of the antibiotic. Observation for growth or no growth was performed after 16-20 hours of incubation at 35±2° C. in ambient air.

[2] = tested on: A. baumanii S-3 (ESBL strain); assay: Agar dilution MIC (CLSI); assay type: cell-based; details: A. baumanii S-3; for MIC: Acinetobacter baumannii
Description: as §1

[3] = tested on: A. baumanii 13304 (ESBL strain); assay: Agar dilution MIC (CLSI); assay type: cell-based; details: A. baumanii 13304; for MIC: Acinetobacter baumannii
Description: as §1

[4] = tested on: A. baumanii S-10 (ESBL strain); assay: Agar dilution MIC (CLSI); assay type: cell-based; details: A. baumanii S-10; for MIC: Acinetobacter baumannii
Description: as §1

[5] = tested on: A. baumanii 13301 (ESBL strain); assay: Agar dilution MIC (CLSI); assay type: cell-based; details: A. baumanii 13301; for MIC: Acinetobacter baumannii
Description: as §1

[6] = tested on: ESBL strains; assay: Agar dilution MIC (CLSI), text summary over the strains; assay type: cell-based, A. baumanii
Description: as §1

[7] = tested on: A. baumanii 13305 (ESBL strain); assay: Agar dilution MIC (CLSI); assay type: cell-based; details: A. baumanii 13305; for MIC: Acinetobacter baumannii
Description: as §1

[8] = tested on: A. baumanii S-4 (ESBL strain); assay: Agar dilution MIC (CLSI); assay type: cell-based; details: A. baumanii S-4
Description: as §1

[9] = tested on: A. baumanii S-15 (ESBL strain); assay: Agar dilution MIC (CLSI); assay type: cell-based; details: A. baumanii S-15
Description: as §1

[10] = NXL-104 4 mcg/ml + Sulbactam 4 mcg/ml
[11] = NXL-104 4 to 8 mcg/ml, read-out: MIC of beta-lactam in presence of NXL-104 (4 to 8 mcg/ml)
[12] = NXL-104 4 mcg/ml + Sulbactam 8 mcg/ml
[13] = NXL-104 6 mcg/ml + Sulbactam 6 mcg/ml
[14] = NXL-104 8 mcg/ml + Sulbactam 4 mcg/ml

CO/N=C(\C(=O)N[C@@H]1C(=O)N2C(C(=O)[O-])=C(C[n+]3cccc4c3CCC4)CS[C@H]12)c1csc(N)n1 [Cefpirome, cefpirome]
MIC of beta-lactam with NXL-104 (4 mcg/ml) + Sulbactam (4 mcg/ml) [1, 10]: 16 µg/mL | MIC of beta-lactam with NXL-104 (4 mcg/ml) + Sulbactam (8 mcg/ml) [1]: 8 µg/mL | MIC of beta-lactam with NXL-104 (6 mcg/ml) + Sulbactam (6 mcg/ml) [1]: 0.5 µg/mL | MIC of beta-lactam with NXL-104 (8 mcg/ml) + Sulbactam (4 mcg/ml) [1]: 0.5 µg/mL | MIC of beta-lactam in presence of Sulbactam (4 to 8 mcg/ml) ([1]; Sulbactam 4 to 8 mcg/ml): 32 µg/mL | MIC [1, 11]: 16 µg/mL | MIC ([1]; alone, read-out: MIC): 32 µg/mL (≈ 62.2 µM) | MIC of beta-lactam with NXL-104 (4 mcg/ml) + Sulbactam (4 mcg/ml) [2, 10]: 16 µg/mL | MIC of beta-lactam with NXL-104 (4 mcg/ml) + Sulbactam (8 mcg/ml) [2]: 4 µg/mL | MIC of beta-lactam with NXL-104 (6 mcg/ml) + Sulbactam (6 mcg/ml) [2]: 1 µg/mL | MIC of beta-lactam with NXL-104 (8 mcg/ml) + Sulbactam (4 mcg/ml) [2]: 0.5 µg/mL | MIC of beta-lactam in presence of Sulbactam (4 to 8 mcg/ml) ([2]; Sulbactam 4 to 8 mcg/ml): >32 µg/mL | MIC [2, 11]: 32 µg/mL | MIC ([2]; alone, read-out: MIC): > 32 µg/mL | MIC of beta-lactam with NXL-104 (4 mcg/ml) + Sulbactam (4 mcg/ml) [3]: <0.06 µg/mL | MIC of beta-lactam with NXL-104 (4 mcg/ml) + Sulbactam (8 mcg/ml) [3]: <0.06 µg/mL | MIC of beta-lactam with NXL-104 (6 mcg/ml) + Sulbactam (6 mcg/ml) [3]: <0.06 µg/mL | MIC of beta-lactam with NXL-104 (8 mcg/ml) + Sulbactam (4 mcg/ml) [3]: <0.06 µg/mL | MIC of beta-lactam in presence of Sulbactam (4 to 8 mcg/ml) ([3]; Sulbactam 4 to 8 mcg/ml): 32 µg/mL | MIC [3, 11]: 16 µg/mL | MIC ([3]; alone, read-out: MIC): 32 µg/mL (≈ 62.2 µM) | MIC of beta-lactam with NXL-104 (4 mcg/ml) + Sulbactam (4 mcg/ml) [4, 10]: 16 µg/mL | MIC of beta-lactam with NXL-104 (4 mcg/ml) + Sulbactam (8 mcg/ml) [4]: 8 µg/mL | MIC of beta-lactam with NXL-104 (6 mcg/ml) + Sulbactam (6 mcg/ml) [4]: <0.03 µg/mL | MIC of beta-lactam with NXL-104 (8 mcg/ml) + Sulbactam (4 mcg/ml) [4]: <0.03 µg/mL | MIC of beta-lactam in presence of Sulbactam (4 to 8 mcg/ml) ([4]; Sulbactam 4 to 8 mcg/ml): >32 µg/mL | MIC [4, 11]: 16 µg/mL | MIC ([4]; alone, read-out: MIC): > 32 µg/mL | MIC of beta-lactam with NXL-104 (4 mcg/ml) + Sulbactam (4 mcg/ml) [5]: <0.06 µg/mL | MIC of beta-lactam with NXL-104 (4 mcg/ml) + Sulbactam (8 mcg/ml) [5]: <0.06 µg/mL | MIC of beta-lactam with NXL-104 (6 mcg/ml) + Sulbactam (6 mcg/ml) [5]: <0.06 µg/mL | MIC of beta-lactam with NXL-104 (8 mcg/ml) + Sulbactam (4 mcg/ml) [5]: <0.06 µg/mL | MIC of beta-lactam in presence of Sulbactam (4 to 8 mcg/ml) ([5]; Sulbactam 4 to 8 mcg/ml): >32 µg/mL | MIC [5, 11]: > 32 µg/mL | MIC ([5]; alone, read-out: MIC): > 32 µg/mL | MIC in presence of sulbactam and NXL-104, lowest value ("as low as") [6]: less than 0.03 mcg/ml | MIC of beta-lactam with NXL-104 (4 mcg/ml) + Sulbactam (4 mcg/ml) [7]: <0.06 µg/mL | MIC of beta-lactam with NXL-104 (4 mcg/ml) + Sulbactam (8 mcg/ml) [7]: <0.06 µg/mL | MIC of beta-lactam with NXL-104 (6 mcg/ml) + Sulbactam (6 mcg/ml) [7]: <0.06 µg/mL | MIC of beta-lactam with NXL-104 (8 mcg/ml) + Sulbactam (4 mcg/ml) [7]: <0.06 µg/mL | MIC of beta-lactam in presence of Sulbactam (4 to 8 mcg/ml) [7]: 8 µg/mL | MIC [7, 11]: 16 µg/mL | MIC ([7]; alone, read-out: MIC): 16 µg/mL (≈ 31.1 µM)

CO/N=C(\C(=O)N[C@@H]1C(=O)N2C(C(=O)[O-])=C(C[N+]3(C)CCCC3)CS[C@H]12)c1csc(N)n1 [Cefepime, cefepime]
MIC of beta-lactam with NXL-104 (4 mcg/ml) + Sulbactam (8 mcg/ml) [8, 12]: 4 µg/mL | MIC of beta-lactam with NXL-104 (6 mcg/ml) + Sulbactam (6 mcg/ml) [8, 13]: 1 µg/mL | MIC of beta-lactam with NXL-104 (8 mcg/ml) + Sulbactam (4 mcg/ml) [8, 14]: 0.5 µg/mL | MIC of beta-lactam with NXL-104 (4 mcg/ml) + Sulbactam (8 mcg/ml) [1]: 8 µg/mL | MIC of beta-lactam with NXL-104 (6 mcg/ml) + Sulbactam (6 mcg/ml) [1]: 0.5 µg/mL | MIC of beta-lactam with NXL-104 (8 mcg/ml) + Sulbactam (4 mcg/ml) [1]: 0.5 µg/mL | MIC of beta-lactam with NXL-104 (4 mcg/ml) + Sulbactam (8 mcg/ml) [2]: 4 µg/mL | MIC of beta-lactam with NXL-104 (6 mcg/ml) + Sulbactam (6 mcg/ml) [2]: 1 µg/mL | MIC of beta-lactam with NXL-104 (8 mcg/ml) + Sulbactam (4 mcg/ml) [2]: 0.5 µg/mL | MIC of beta-lactam with NXL-104 (4 mcg/ml) + Sulbactam (4 mcg/ml) [3]: <0.06 µg/mL | MIC of beta-lactam with NXL-104 (4 mcg/ml) + Sulbactam (8 mcg/ml) [3]: <0.06 µg/mL | MIC of beta-lactam with NXL-104 (6 mcg/ml) + Sulbactam (6 mcg/ml) [3]: <0.06 µg/mL | MIC of beta-lactam with NXL-104 (8 mcg/ml) + Sulbactam (4 mcg/ml) [3]: <0.06 µg/mL | MIC of beta-lactam with NXL-104 (4 mcg/ml) + Sulbactam (8 mcg/ml) [4]: 8 µg/mL | MIC of beta-lactam with NXL-104 (6 mcg/ml) + Sulbactam (6 mcg/ml) [4]: <0.03 µg/mL | MIC of beta-lactam with NXL-104 (8 mcg/ml) + Sulbactam (4 mcg/ml) [4]: <0.03 µg/mL | MIC of beta-lactam with NXL-104 (4 mcg/ml) + Sulbactam (8 mcg/ml) [9, 12]: 8 µg/mL | MIC of beta-lactam with NXL-104 (6 mcg/ml) + Sulbactam (6 mcg/ml) [9, 13]: 0.12 µg/mL | MIC of beta-lactam with NXL-104 (8 mcg/ml) + Sulbactam (4 mcg/ml) [9, 14]: 0.5 µg/mL | MIC of beta-lactam with NXL-104 (4 mcg/ml) + Sulbactam (4 mcg/ml) [5]: <0.06 µg/mL | MIC of beta-lactam with NXL-104 (4 mcg/ml) + Sulbactam (8 mcg/ml) [5]: <0.06 µg/mL | MIC of beta-lactam with NXL-104 (6 mcg/ml) + Sulbactam (6 mcg/ml) [5]: <0.06 µg/mL | MIC of beta-lactam with NXL-104 (8 mcg/ml) + Sulbactam (4 mcg/ml) [5]: <0.06 µg/mL | MIC of beta-lactam with NXL-104 (4 mcg/ml) + Sulbactam (4 mcg/ml) [7]: <0.06 µg/mL | MIC of beta-lactam with NXL-104 (4 mcg/ml) + Sulbactam (8 mcg/ml) [7]: <0.06 µg/mL | MIC of beta-lactam with NXL-104 (6 mcg/ml) + Sulbactam (6 mcg/ml) [7]: <0.06 µg/mL | MIC of beta-lactam with NXL-104 (8 mcg/ml) + Sulbactam (4 mcg/ml) [7]: <0.06 µg/mL | MIC of beta-lactam in presence of Sulbactam (4 to 8 mcg/ml) [7]: 4 µg/mL
